Where “and” joins values, the source holds several entries; their conditions need not be identical. Equal entries are not always repeated.
Tested on: 299254-011-R-J1-PDC complex spheroid viability
Assay: Anticancer human tumor 299254-011-R-J1-PDC patient-derived melanoma cell line growth inhibition [POLQ]
Conditions: for viability, T/C: stronger effect = lower value; for IC50: curve of compound
Experimental: Multicellular complex tumor spheroid response to Polymerase (POL) inhibitors (novobiocin, ART-558, RP6685) in combination with a variety of drugs and investigational agents in selected tumor cell lines
The POL inhibitors (novobiocin, ART-558, and RP6685) were evaluated both individually and in combination with standard of care and investigational anticancer small molecules within a complex spheroid model of solid tumors. . Complex spheroids include a stromal component modeled by human endothelial cells (HUVEC) and fibroblasts modeled by human mesenchymal stem cells (MSCs). The concentration ranges selected for each drug and investigational agent were based upon clinically achievable concentrations if the clinical Cmax of the agent was known.
Compounds. The drugs and investigational agents: novobiocin (NSC847541), ART-558 (NSC835418), RP-6685 (NSC848927), peposertib (NSC802822), ceralasertib (NSC780249), elimusertib (NSC800525), camonsertib (NSC841442), AZD-1390 (NSC803789), olaparib (NSC753686), talazoparib (NSC767125), rucaparib (NSC756644), sotorasib (NSC818433), MRTX-1133 (NSC836407), SN-38 (NSC673596), topotecan (NSC609699), epotoside (NSC141540), doxorubicin (NSC123127), gemcitabine (NSC613327), 5-fluorouracil (NSC19893), paclitaxel (NSC125973), vemurafenib (NSC761431), MSA-2 (NSC828583), SN-011 (NSC837082), adavosertib (NSC754352), prexasertib (NSC758257), carboplatin (NSC241240) and oxaliplatin (NSC266046), were obtained from the National Cancer Institute (NCI) Developmental Therapeutics Program Chemical Repository (21). The FDA-approved anticancer drug set is available from the Developmental Therapeutics Program at https://dtp.cancer.gov/organization/dscb/obtaining/. […] The stock solutions were prepared in dimethyl sulfoxide (DMSO, Sigma-Aldrich, St. Louis, MO, cat. D2650), except for the platinum compounds which were prepared in saline (Quality Biological, Gaithersburg, MD, cat. 114-055-101), at 800-fold the tested concentration and stored at -70 degrees C prior to their use. All drugs and investigational agents were tested over a range starting from a high concentration at or near the clinical Cmax and decreasing in half-log increments. If the clinical Cmax for an agent had not been determined, the highest concentration tested was 10 microM, except for SN-38, which was tested at a high concentration of 1 microM.
Cell Culture. All cells were maintained in an incubator at 37 degrees C and 5% CO2 with 95% humidity. The PDC lines were cultured according to standard operating procedures established by the NCI PDMR (https://pdmr.cancer.gov). Table 3 of the manuscript, lists the cell lines along with the number of the three cell types plated to form the mct-spheroids and media for tumor cell growth. After thawing, all PDC lines, except 997537-175-T-J1-PDC and 415267-285-R-J2-PDC, were cultured in Matrigel-coated flasks prepared with a working solution of 1X Ham's F-12 nutrient mix, without supplementation (Thermo Fisher Scientific, cat. 11765054), 100 U/mL penicillin-streptomycin (Thermo Fisher Scientific, cat. 15140122), and 2.5% Matrigel (Corning Inc., Corning, NY, cat. 354248) for the first three passages. The two PDC lines 997537-175-T-J1-PDC and 415267-285-R-J2-PDC were cultured on uncoated flasks. The 857933-349-R-J2-PDC line was cultured in 6C/Colon 1B media containing advanced DMEM/F-12 (Thermo Fisher Scientific, cat. 12634028), 10 mM HEPES (Thermo Fisher Scientific, cat. 15630080), 1X GlutaMAX supplement (Thermo Fisher Scientific, cat. 35050061), 0.1 mg/mL primocin (InvivoGen, San Diego, CA, cat. ant-pm-2), 10% defined fetal bovine serum, heat inactivated (HyClone Laboratories Inc., Logan, UT, cat. SH30070.03HI), 50% L-WRN conditioned media (ATCC, cat. CRL-3276), 1.25 mM N-Acetyl-L-cysteine (Sigma-Aldrich, cat. A9165), 10 mM nicotinamide (Sigma-Aldrich, cat. N0636), 1X B-27 supplement (Thermo Fisher Scientific, cat. 17504044), 1X N-2 supplement (Thermo Fisher Scientific, cat. […]
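Also: spheroids exposed to drugs for one week before measurement.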
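For viability, T/C in this document: percent viability relative to DMSO vehicle control taken as 100%.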

For `C#Cc1c(F)ccc2cc(O)cc(-c3ncc4c(N5CC6CCC(C5)N6)nc(OCC56CCCN5CC(F)C6)nc4c3F)c12` (configuration not stated), the viability, T/C (compound 0.0316 µM) was 90.8% and 94.2% and 98%, the viability, T/C (compound 0.1 µM) was 109% and 101% and 94.8% and the viability, T/C (compound 0.316 µM) was 113% and 107% and 110%. For the same compound, the viability, T/C (compound 1 µM) was 117% and 116% and 112%, the viability, T/C (compound 3.16 µM) was 102% and 117% and 93.7% and the viability, T/C (compound 10 µM) was 84.7% and 82.2% and 84.4%. For the same compound, the IC50 was greater than 10 µM.
In the case of `C=CC(=O)N1CCN(c2nc(=O)n(-c3c(C)ccnc3C(C)C)c3nc(-c4c(O)cccc4F)c(F)cc23)C(C)C1` (configuration not stated), the viability, T/C (compound 0.0316 µM) is reported as 84.9% and 90.1% and 80.7%, the viability, T/C (compound 0.1 µM) is reported as 71.5% and 77.5% and 66.9% and the viability, T/C (compound 0.316 µM) is reported as 85.2% and 74.5% and 70.9%. The viability, T/C (compound 1 µM) was 72.8% and 66.9% and 60.2%, the viability, T/C (compound 3.16 µM) was 63.5% and 85.5% and 63% and the viability, T/C (compound 10 µM) was 66.1% and 77.9% and 62.6%. For the same compound, the IC50 was greater than 10 µM.
In the case of `C=CCn1c(=O)c2cnc(Nc3ccc(N4CCN(C)CC4)cc3)nc2n1-c1cccc(C(C)(C)O)n1`, the viability, T/C (compound 0.00316 µM) is reported as 101% and 90.2% and 103%, the viability, T/C (compound 0.01 µM) is reported as 98.3% and 97.1% and 94.1% and the viability, T/C (compound 0.0316 µM) is reported as 106% and 114% and 110%. For the same compound, the viability, T/C (compound 0.1 µM) was 115% and 104% and 105%, the viability, T/C (compound 0.316 µM) was 83.5% and 95.6% and 103% and the viability, T/C (compound 1 µM) was 79.1% and 78.9% and 58.3%. It also gave an IC50 greater than 1 µM.
For `CC(=O)O[C@H]1C(=O)[C@@]2(C)[C@H]([C@H](OC(=O)c3ccccc3)[C@]3(O)C[C@H](OC(=O)[C@H](O)[C@@H](NC(=O)c4ccccc4)c4ccccc4)C(C)=C1C3(C)C)[C@]1(OC(C)=O)CO[C@@H]1C[C@@H]2O`, the viability, T/C (compound 0.00949 µM) was 84.8% and 82.2% and 94.2%, the viability, T/C (compound 0.03 µM) was 76.5% and 84.1% and 70.9% and the viability, T/C (compound 0.0949 µM) was 49.1% and 47.2% and 41.7%. For the same compound, the viability, T/C (compound 0.3 µM) was 31.8% and 42.1% and 26.9%, the viability, T/C (compound 0.949 µM) was 22.3% and 28.3% and 21.8% and the viability, T/C (compound 3 µM) was 28.1% and 22.8% and 15.4%. The IC50 was 0.0932 µM and 0.125 µM and 0.0704 µM.
`CC(C)n1c(=O)n(C)c2cnc3cc(F)c(-c4ccc(OCCCN5CCCCC5)nc4)cc3c21` was tested, and the viability, T/C (compound 0.0316 µM) was 98.8% and 106% and 88.4%, the viability, T/C (compound 0.1 µM) was 96.7% and 99.9% and 85.7% and the viability, T/C (compound 0.316 µM) was 112% and 108% and 95.3%. The viability, T/C (compound 1 µM) was 101% and 95.5% and 94.9%, the viability, T/C (compound 3.16 µM) was 89.8% and 106% and 90.2% and the viability, T/C (compound 10 µM) was 73.4% and 78.9% and 88.5%. For the same compound, the IC50 was greater than 10 µM.
For `CC1COCCN1c1cc(-c2ccnn2C)c2ccnc(-c3ccn[nH]3)c2n1` (configuration not stated), the viability, T/C (compound 0.0316 µM) was 96.6% and 111% and 99%, the viability, T/C (compound 0.1 µM) was 67.8% and 70% and 78.4% and the viability, T/C (compound 0.316 µM) was 46.7% and 46.5% and 50.2%. For the same compound, the viability, T/C (compound 1 µM) was 30.8% and 31.4% and 31.7%, the viability, T/C (compound 3.16 µM) was 21.6% and 31.1% and 23.9% and the viability, T/C (compound 10 µM) was 18.8% and 20.6% and 22.7%. For the same compound, the IC50 was 0.255 µM and 0.265 µM and 0.32 µM.

— PubChem BioAssay AID1963849 (Molecular Pharmacology Branch, DTP, NCI, 2024)
